For data set [1], the system named is Rhinovirus 7. To be noted: for Infection of WI 38 cells after 10 days of inoculation: 10 U GO + 5% glucose added after 2 days.
The subject of data set [2] is Rhinovirus 8. To be noted: for Infection of WI 38 cells after 10 days of inoculation: 10 U GO + 5% glucose added after 2 days.
Data set [3] concerns Rhinovirus 7. To be noted: for Day 3 (cytopathic effect of RV 7 on WI 38 cells) / Day 5 (cytopathic effect of RV 7 on WI 38 cells) / Day 7 (cytopathic effect of RV 7 on WI 38 cells): 20 U GO/ml; for Incubation time for inactivation of rhinovirus: glucose oxidase 20 U/ml. As to the method: Virus: Rhinovirus 7, purchased from ATCC (VR-1117), was used as a representative for the rhinovirus group. In the assays the dilutions 10^−2 and 10^−3 were used. […] 0.3 ml of each dilution was added into the vials.
Cell culture: Human lung cell fibroblasts (WI 38, ATCC-CCL-75) was used for cytopathic effect detection. 10-fold serial dilutions had been made from the concentrated viral suspension. […] Then the media was changed to RPMI with 2% of fetal calf serum, which was preserved during the assay. The cells were incubated in CO2enriched air at 37° C. During the experiments a cell culture of 17th-18^thpassage was used.
Catalase: From Sigma-Aldrich™. A solution of 100 000 U/ml was prepared from the original solution of 10^6 U/ml.
H2O2: a 20% solution was diluted in Phosphate buffered saline (PBS) to a 0.5% and a 0.05% solution. 0.1 ml was added to the vials, which means 0.05% or 0.005% in the vials.
A solution of 200 U/ml and 600 U/ml was prepared from the original solution of 6000 U/ml.
In order to evaluate whether the effect of the hydrogen peroxide was a direct effect on the virus itself or a cytoprotective effect, we preincubated the virus with the hydrogen peroxide, before it was transferred to the wells with the cells. The WI 38 cells are also sensitive to hydrogen peroxide, and therefore it was necessary to add catalase before inoculation into the wells. […] This design would also reveal if the inhibitory effect was only a virostatic one, or if it could damage the virions irreversibly.
In table 1 the content of each of the 10 vials (Eppendorf) is listed. The vials were incubated in a heater keeping a stable temperature of 37° C. 1000 U of catalase was added after 15, 30 and 60 min of incubation. 2×50 μl from each vial was transferred to duplicate cell wells (a 96-well plate).
A general note: Cytopathic effects are the visible damage that an infection or toxin causes in cultured cells.

In data set [4] the test system is Rhinovirus 7. As to the method: (§1) Virus concentration=dil 2. Incubation during 30 min in heater keeping 37° C. After 30 min the effect of the hydrogen peroxide is aborted with the addition of 0.1 ml catalase solution into the vial (=1 kU/ml). • 0.7 ml 5% glucose solution+0.1 ml dil 1 of RV7 (=a7) or RV8 (=a8)+0.1 ml of the hydrogen peroxide solution (=final concentration in the vial=[…]). Incubation and abortion of the hydrogen peroxide effect similar as in a).
(§2) Altogether 4 vials (Eppendorff): a7, a8, b7 and b8.
(§3) After the addition of catalase, samples are transferred to a 96-well plate with flat bottom according to table 3.

The test system of data set [5] is Rhinovirus 8. As to the method: as §1, §2, §3
For the next data set, the system named is WI 38 cells. As to the method: as §1, §3
The mark [6] stands for this setting: Glucose Oxidase added into the wells 2 days after the initial incubation.
Where [7] appears, read: RV 7 dil 10^−2, preincubation 15 min.
Setting [8] is: RV 7 dil 10^−2, preincubation 30 min.
Setting [9] is: RV 7 dil 10^−2, preincubation 60 min.
Where [10] appears, read: RV 7 dil 10^−3, preincubation 15 min.
Setting [11] is: RV 7 dil 10^−3, preincubation 30 min.
[12] abbreviates: RV 7 dil 10^−3, preincubation 60 min.
Where [13] appears, read: 40 U/ml of Glucose Oxidase, high initial inoculate.
The mark [14] stands for this setting: 50 μl a7: RV7 dil 2 preincubated 30 min with 40 U/ml Glucose Oxidase, then catalase.
Setting [15] is: 50 μl a8: RV8 dil 2 preincubated 30 min with 40 U/ml Glucose Oxidase, then catalase.

Several values for one entry are separate records, joined by “and”; a condition that tells them apart may be missing. Equal values may be shown once. Read-outs that look alike come from different tables or passages of the source. Bounds are passed on as bounds.

With Glucose oxidase [GO], the “Infection of WI 38 cells after 10 days of inoculation” value was 2+ in the data set with Rhinovirus 7 [1] (well E1, 50 μl RV7 dilution 2); 0 in the data set with Rhinovirus 7 [1] (well E3, 50 μl RV7 dilution 4); 1+ with Rhinovirus 7 [1] (wells F9, E9, 10 μl RV7 dilution 1); 2+ in the data set on Rhinovirus 8 [2] (well E2, 50 μl RV8 dilution 2); 0 with Rhinovirus 8 [2] (well E4, 50 μl RV8 dilution 4); 2+ and 3+ with Rhinovirus 8 [2] (wells D9, C9, 10 μl RV8 dilution 1). In addition, the “Infection of WI 38 cells after 10 days of inoculation” value in the data set on Rhinovirus 7 [4] (setting [14]) and with Rhinovirus 8 [5] (setting [15]) was 0 each time. The “Spread of viral infection to other cells” value with Rhinovirus 7 [1] (setting [6]) and with Rhinovirus 8 [2] (setting [6]) was “could prevent the spread of viral infection” in each case. In the data set with Rhinovirus 7 [3], the “GO concentration having an effect on the Rhinovirus infection” value is reported as “less than 20 U/ml”. Besides, the “Day 3 (cytopathic effect of RV 7 on WI 38 cells)” value in the data set on Rhinovirus 7 [3] (setting [7]), in the data set on Rhinovirus 7 [3] (setting [8]), with Rhinovirus 7 [3] (setting [9]), in the data set on Rhinovirus 7 [3] (setting [10]), with Rhinovirus 7 [3] (setting [11]) and with Rhinovirus 7 [3] (setting [12]) was “−” each time. For the same molecule, the “Day 5 (cytopathic effect of RV 7 on WI 38 cells)” value with Rhinovirus 7 [3] (setting [7]), in the data set on Rhinovirus 7 [3] (setting [8]), with Rhinovirus 7 [3] (setting [9]), with Rhinovirus 7 [3] (setting [10]), with Rhinovirus 7 [3] (setting [11]) and in the data set on Rhinovirus 7 [3] (setting [12]) was “−” throughout. For the same molecule, the “Day 7 (cytopathic effect of RV 7 on WI 38 cells)” value in the data set with Rhinovirus 7 [3] (setting [7]), in the data set on Rhinovirus 7 [3] (setting [8]), in the data set on Rhinovirus 7 [3] (setting [9]), in the data set with Rhinovirus 7 [3] (setting [10]), with Rhinovirus 7 [3] (setting [11]) and in the data set with Rhinovirus 7 [3] (setting [12]) was “−” throughout. Also, in the data set with Rhinovirus 7 [3] (20 U/ml of Glucose Oxidase), the “Amount of H2O2 produced by Glucose Oxidase, equivalent” value is “more than 0.005 % H2O2”. Moreover, in the data set on Rhinovirus 7 [3] (GO less than 20 U/ml), the “Hydrogen peroxide concentration corresponding to the effective GO concentration” value is “more than 10 mM”. Further, the “Reversibility of the inactivation of RV 7” value in the data set on Rhinovirus 7 [3] (Glucose Oxidase or 0.05% hydrogen peroxide solution, 7 days of incubation, no sign of recovery) is “irreversible”. For the same molecule, the “Glucose Oxidase concentration sufficient for complete inactivation of RV 7” value with Rhinovirus 7 [3] (WI 38 cells) was found to be 20 U/ml. In addition, the “Cytopathic effect in wells where Glucose Oxidase had been incubated with RV 7” value in the data set with Rhinovirus 7 [3] (after 5 days of incubation, even after only 15 min preincubation and higher RV 7 concentration) was “no cytopathic effect”. Further, the results for the “Incubation time for inactivation of rhinovirus” value in the data set on Rhinovirus 7 [3] and in the data set on Rhinovirus 7 [3] (listed as glucose oxidase) were not above 30 min and “less than 30 minutes”, respectively. Also, the “Inactivation of RV 7” value with Rhinovirus 7 [4] (setting [13]) is listed as “able to inactivate”. Besides, the “Infection of WI 38 cells after 2 days of inoculation” value in the data set with Rhinovirus 7 [4] (setting [14]) and with Rhinovirus 8 [5] (setting [15]) was 0 in each case. The “Inactivation of RV 8” value with Rhinovirus 8 [5] (setting [13]) is recorded as “able to inactivate”.

B1: Catalase: specific enzyme catalyzing the conversion of H2O2 into O2 and H2O; purified from human erythrocytes (protein, UniProt P04040 2-527, looked up)
Catalase: ADSRDPASDQMQHWKEQRAAQKADVLTTGAGNPVGDKLNVITVGPRGPLLVQDVVFTDEMAHFDRERIPERVVHAKGAGAFGYFEVTHDITKYSKAKVFEHIGKKTPIAVRFSTVAGESGSADTVRDPRGFAVKFYTEDGNWDLVGNNTPIFFIRDPILFPSFIHSQKRNPQTHLKDPDMVWDFWSLRPESLHQVSFLFSDRGIPDGHRHMNGYGSHTFKLVNANGEAVYCKFHYKTDQGIKNLSVEDAARLSQEDPDYGIRDLFNAIATGKYPSWTFYIQVMTFNQAETFPFNPFDLTKVWPHKDYPLIPVGKLVLNRNPVNYFAEVEQIAFDPSNMPPGIEASPDKMLQGRLFAYPDTHRHRLGPNYLHIPVNCPYRARVANYQRDGPMCMQDNQGGAPNYYPNSFGAPEQQPSALEHSIQYSGEVRRFNTANDDNVTQVRAFYVNVLNEEQRKRLCENIAGHLKDAQIFIQKKAVKNFTEVHPDYGSHIQALLDKYNAEKPKNAIHTFVQSGSHLAAREKANL
For B1, in the data set with WI 38 cells, the “Effect on WI 38 cells after 2 days” value is recorded as 0 and the “Effect on WI 38 cells after 10 days” value is 0.

(Values after US8895282B2, “Use of a substance for manufacturing of a medicament for treatment of common cold” (Tanomed AB, priority 2008, dated 2014).)
